Numbered stars: 1 amine (or outer) side, 2 acyl side, 3 side chain; on linkers, the order of the positions; unused ones are H or OH. Square brackets hold non-standard residues; d marks the D form. Peptide text beside a SMILES is read from it. * marks the point of attachment. Exatecan = CC[C@@]1(O)C(=O)OCc2c1cc1n(c2=O)Cc2c-1nc1cc(F)c(C)c3c1c2[C@@H](N*)CC3; Propanoyl(3-maleimido) = O=C1C=CC(=O)N1CCC(=O)*; PABC = O=C(OCc1ccc(N[*:1])cc1)[*:2]
Test: Aggregation studies: % monomer by SEC after conjugation to test monoclonal antibody
Format: physicochemical
Conditions: 95% monomer or greater assessed as low aggregation
Procedure: Aggregation is a process in which molecules self-associate with each other. In the context of the present invention, aggregation levels are assessed during the conjugation of a linker construct to an antibody. During conjugation, aggregation is quantified in terms of percentage monomer content. High percentage monomer values typically equate to a lower degree of aggregation. Percentage monomer values of 93% or 95% or higher typically mean negligible levels of aggregation or none, whereas values below this threshold typically translate to higher levels of aggregation.
2 mg of test monoclonal antibody at 8.87 mg/mL was pH adjusted with 5% 0.5 M Tris, 0.025 M EDTA, pH 8.5 and reduced with 2.3 mol. eq TCEP and then conjugated with 6 mol. eq drug linker. […] Percentage monomer values of 95% or greater are assessed as low aggregation.
Aggregation levels were assessed during the conjugation to the test antibody.
During conjugation, we are ideally targeting a monomer content or percentage monomer of 95% or above. Low percentage monomer values usually translate to a higher degree of aggregation. One could therefore agree that percentage monomer values of 95% or higher mean very low levels of aggregation or none, whereas values below this threshold often translate to higher levels of aggregation.

With `CC[C@@]1(O)C(=O)OCc2c1cc1n(c2=O)Cc2c-1nc1cc(F)c(C)c3c1c2[C@@H](NC(=O)OCc1ccc(NC(=O)[C@H](C)NC(=O)[C@@H](NC(=O)CNC(=O)CNC(=O)CNC(=O)CNC(=O)CNC(=O)CCN2C(=O)C=CC2=O)C(C)C)cc1)CC3` [Mal-Gly5-VA-PABC-Exatecan] ({Propanoyl(3-maleimido)}-GGGGGVA[PABC]-Exatecan) the “Aggregation (grade in words)” value was “None”.

— US20260273084A1, “ANTIBODY-DRUG CONJUGATES” (ADC THERAPEUTICS SA, priority 2023, published 2026)
